From publication PMC6367500, “18β-glycyrrhetyl-3-O-sulfate would be a causative agent of licorice-induced pseudoaldosteronism” (Scientific Reports, 2019)

Legend:
[1] = Plasma and urine levels of GA metabolites in SD rats orally treated with GA (LC-MS/MS); type: in vivo; settings: GA 0.20 g/kg orally; for concentration at 12 h: female, SD (Sprague-Dawley), rat, plasma, po, 0.2 g/kg
Procedure: (§1) Then, bile samples were collected for 4 h (E).
(§2) Female SD rats or EHBRs (9-week-old) were anesthetized by an intraperitoneal (i.p.) injection of urethane (1 g/kg) and their jugular veins were exposed. […] Feces were homogenized in phosphate-buffered saline (PBS; 0.15 M, pH 7.2), centrifuged (1.2 × 10^4 g, 10 min), and the supernatants were collected. After 1 week as a washout period, female SD rats were anesthetized by an i.p. injection of urethane (1 g/kg) and their biliary tract was cannulated. […] Aliquots (10 µl) of plasma, urine, homogenate of feces, or bile were mixed with 20 µl of subtilisin (0.91 U/ml) and incubated at 37 °C for 30 min, followed by the addition of 70 µl of astragaloside IV solution (1 µg/ml in ethanol containing 0.5% formic acid, used as internal standard), and kept at −20 °C for 30 min.

anti-3MGA-mAb = experiment: Dot-blot analysis using anti-3MGA-mAb; type: binding; settings: 1 µg spotted on PES membrane, imaging analysis
Procedure: We confirmed the cross-reactivity of anti-3MGA-mAb against these GL metabolites. GL, GA, 3MGA, and compounds 1, 2, and 3 (1 µg each) were spotted on a polyethersulfone (PES) membrane, fixed onto the membrane, and colored using an anti-3MGA-mAb (Fig. 5A). […] Thus, the anti-3MGA-mAb cross-reacted to some extent with other metabolites of GL.
Figure 5 Dot-blot analysis and ELISA detection range of GL metabolites using anti-3MGA-monoclonal antibody (mAb). GL metabolites (1 µg each) were spotted on a PES membrane, and colored using an anti-3MGA-mAb (A). Competitive ELISA using anti-3MGA-mAb for GL metabolites was performed. Data are represented from a single analysis (n = 1) (B). […] Data are represented as mean ± S.D. (n = 3). Two-way ANOVA indicated a significant difference between GA and 3 (F1,36 = 4441, P < 0.001), concentrations (F8,36 = 315, P < 0.001), and their interactions (F8,36 = 281, P < 0.001). The calibrated line for the absorbance-concentration profile of 3 was calculated by the linear least-squares method, and the regression formula is shown in graph (C).
Anti-3MGA-mAb and 3MGA-human serum albumin (HSA)-conjugate were developed by the same protocols established in our previous studies[22],[23]. GL, GA, 3MGA, 1, 2, and 3 (1 µg each) were spotted on a Mustang^TM E positively charged PES membrane (Pall Co., East Hills, NY, USA). The membrane was then immersed into 0.1 M MES buffer (pH 4.7) containing 2% EDC and 1% NHS, and kept at room temperature for 1 h to activate the carboxyl group. After washing with distilled water, PBS containing 1% bovine serum albumin (BSA) was added to the membrane, which was shaken at room temperature for 2 h for fixation. Next, the membrane was blocked with PBS containing 5% skim milk (Morinaga-milk, Tokyo, Japan) and 0.1% Tween 20 at 4 °C overnight to reduce nonspecific adsorption. After washing twice with PBS containing 0.1% Tween 20 (T-PBS) for 5 min, the membrane was incubated with anti-3MGA-mAb and kept at room temperature for 3 h with constant agitation. The membrane was then washed twice with T-PBS for 5 min and treated with 1:500 diluted horseradish peroxidase (HRP)-labeled goat anti-mouse IgG (whole molecule; Sigma, St. Louis, MO, USA) antibody in T-PBS for 1 h with gentle shaking. Finally, the membrane was washed twice with T-PBS and once with PBS, and exposed to 1 mg/ml of freshly prepared 4-chloro-1-naphthol-0.03% H2O2 in PBS for 15 min at room temperature. The reaction was stopped by washing with distilled water, and the immunostained PES membrane was allowed to dry and then photographed. The positively stained areas were measured using Image J 1.46r (http://imageJ.nih.gov/ij).

[2] = Plasma and urine levels of GA metabolites in EHBRs orally treated with GA (LC-MS/MS); type: in vivo, Eisai hyperbilirubinuria rats (EHBRs); settings: for level in accumulated urine for 12 h / concentration at 12 h / level in accumulated urine for 12 h relative to that of 3MGA: GA 200 mg/kg orally; for concentration at 12 h: oral, read-out: plasma concentration at 12 h after treatment
Procedure: as §2

[3] = Fecal excretion of GA metabolites in SD rats injected i.v. with GA; type: in vivo; settings: GA 0.2 mg/kg i.v.
Procedure: as §1, §2

rat kidney slices = experiment: Uptake into rat kidney slices from pooled EHBR plasma; type: in vitro ADME, SD rats; settings: pH 5.5, 2 h
Procedure: Kidney slices were prepared from SD rats and incubated with the pooled plasma, the pH of which pH was adjusted to 5.5 at 4 °C or 37 °C for 2 h. Figure 4A–C show the amounts of 2, 3, and GA accumulated in the kidney slices.
Figure 4 Uptake of 2 and 3 into rat kidney slices (A–C) or into MDCK II cells stably expressing OAT1 or OAT3 (D–F). Female EHBRs were orally treated with GA (200 mg/kg), and their plasma samples were collected […] after the treatment. The concentrations of compounds 2, 3, and GA in the plasma samples of EHBRs were 7.8, 11.5, and 7.0 µM, respectively. Kidneys were collected from normal SD rats, and the kidney slices were incubated with the plasma samples of EHBRs at 37 °C or 4 °C for 2 h (A–C). MDCK II cells stably expressing OAT1 or OAT3 were incubated with the plasma samples of EHBRs at 37 °C for 15 min (D–F). Then, the concentrations of compounds 2, 3, and GA in kidney slices or the cells were measured by LC-MS/MS. Data are expressed as mean ± S.E. (n = 3 for (C, D), and (E); n = 6 for (A, B), and F). *P < 0.05 and **P < 0.01 vs 4 °C group by Student’s t-test for (A–C), and vs mock cells by Dunnett’s multiple t-test for (D–F).
Uptake studies using rat kidney slices and cells stably expressing OAT1 and OAT3 were conducted with the same protocol as in our previous study. We used the same pooled plasma of female EHBRs orally treated with GA for 12 h as in our previous study.

[4] = Binding to serum albumin by ultrafiltration of pooled EHBR plasma; settings: female, EHBR (Eisai hyperbilirubinuria rat), oral, 200 mg/kg
[5] = female, EHBR (Eisai hyperbilirubinuria rat), rat, plasma

Row | SMILES | amount in accumulated urine collected 12 h after oral treatment [1] | area of positive staining in dot-blot (anti-3MGA-mAb) | level in accumulated urine for 12 h [2] | concentration at 12 h [2, 5] | detection in feces collected for 24 h [3] | uptake by kidney slices at 37 °C compared with 4 °C (rat kidney slices) | time of plasma peak after oral treatment [1] | concentration at 12 h [1] | Tmax ([2]; female, EHBR (Eisai hyperbilirubinuria rat), rat, plasma, po, 0.2 g/kg, GA 0.20 g/kg orally, read-out: time of maximum plasma concentration) | concentration at 12 h ([4]; plasma ultrafiltrate) | concentration at 12 h ([4]; plasma) | level in accumulated urine for 12 h relative to that of 3MGA [2]
1 | CC1(C)[C@@H](O[C@@H]2O[C@H](C(=O)O)[C@@H](O)[C@H](O)[C@H]2O)CC[C@]2(C)[C@H]3C(=O)C=C4[C@@H]5C[C@@](C)(C(=O)O)CC[C@]5(C)CC[C@@]4(C)[C@]3(C)CC[C@@H]12 [3MGA, 3-monoglucuronyl glycyrrhetinic acid, reference compound] | below detectable levels | 3395 pixels | 0.31 nmol | 0.09 µM | not found | – | – | – | – | – | – | –
2 | CC1(C)[C@@H](O)CC[C@]2(C)[C@H]3C(=O)C=C4[C@@H]5C[C@@](C)(C(=O)O)CC[C@]5(C)CC[C@@]4(C)[C@]3(C)CC[C@@H]12 [GA, glycyrrhetinic acid, reference compound] | – | 97 pixels | 0.05 nmol | ~10 µM | – | not different | 1 h | 4.7 µM | 1 h | < 0.016 µM | 7 µM | –
3 | CC1(C)[C@@H](OS(=O)(=O)O)CC[C@]2(C)[C@H]3C(=O)C=C4[C@@H]5C[C@@](C)(C(=O)O[C@@H]6O[C@H](C(=O)O)[C@@H](O)[C@H](O)[C@H]6O)C[C@H](O)[C@]5(C)CC[C@@]4(C)[C@]3(C)CC[C@@H]12 [compound 1, 22α-hydroxy-18β-glycyrrhetyl-3-O-sulfate-30-glucuronide] | below detectable levels | 606 pixels | – | ~10 µM | not found | – | – | – | – | – | – | 8 fold
4 | CC1(C)[C@@H](OS(=O)(=O)O)CC[C@]2(C)[C@H]3C(=O)C=C4[C@@H]5C[C@@](C)(C(=O)O)C[C@H](O)[C@]5(C)CC[C@@]4(C)[C@]3(C)CC[C@@H]12 [compound 2, 22α-hydroxy-18β-glycyrrhetyl-3-O-sulfate] | below detectable levels | 79 pixels | – | ~10 µM | found | significantly higher | – | – | – | < 0.0032 µM | 7.8 µM | 110 fold
5 | CC1(C)[C@@H](OS(=O)(=O)O)CC[C@]2(C)[C@H]3C(=O)C=C4[C@@H]5C[C@@](C)(C(=O)O)CC[C@]5(C)CC[C@@]4(C)[C@]3(C)CC[C@@H]12 [compound 3, 18β-glycyrrhetyl-3-O-sulfate] | 0.03 nmol | 146 pixels | – | ~10 µM | found | significantly higher | – | 0.3 µM | – | < 0.0032 µM | 11.5 µM | 62 fold
